Data reported in patent publication US8538706B2, “Method for affinity scoring of peptide/protein complexes” (Lonza Biologics PLC, priority 2004, dated 2013).

What was measured:
HLA-A*2402 = HLA-A*2402 (Homo sapiens, UniProt P04439, D101N/D140Y/D185E/E176V/E190D/F33S/G103R/G107R/I119L/I121M/I306V/K335N/L105A/L180Q/L300P/N151K/N90K/Q86E/Q94H/R106L/R138H/R89G/T104I/T345S/V100E/W191G/Y123F); assay: independent binding assay of fluorescent reference peptide (Kdref), A24; details: single-site curve fitting, approximate
Method: 50% inhibitory concentrations (IC50-values) were calculated as averages obtained from at least 3 independent measurements, i.e. from different cell preparations and peptide dilutions. Test peptides >95% pure (Thermo Electron GmbH) were stored at 10 mM in DMSO at −20° C. Cysteine-containing peptides were stored at 10 mM in 1 mM DTT DMSO. […] IC50-values were converted to binding free energies (AG) using the relationships Kd=IC50Kdref/cref (7) and AG=RT ln(Kd) (8) where Kdref and cref are the dissociation constant and formal concentration of the reference peptide, respectively. The Kdref values were derived from an independent binding assay in which the fluorescence intensity was measured as a function of increasing concentrations of reference peptide.

HLA-A*0101 (A1) = HLA-A*0101 (A1) (Homo sapiens, UniProt P04439, A114D/A174V/A182V/D101N/D185E/E176A/E190D/L180R/Q94H/R68K/S129P/T187R/V100A/V91M/W191G); details: cited from earlier work

RYLKC(5Fluorescein)QQLL showed a Kd (HLA-A*2402) of roughly 30 nM.

For IYQYMDDLY, the “binding to A1 in words” value (HLA-A*0101 (A1); Tyr at P2) is given as “medium-affinity binder”.

In the case of YSDSVYGDT, the Kd (HLA-A*0101 (A1); strongest A1-binding peptide from HPV-18) is listed as 188 nM.
